Consider five sequences from PMC7730238, “Temporin-Like Peptides Show Antimicrobial and Anti-Biofilm Activities against Streptococcus mutans with Reduced Hemolysis” (Molecules, 2020).

No end group written: not given here. Where only a bound is given, the exact number is not on record here.

Data set [1] relates to Pseudomonas aeruginosa (ATCC 15442). It counts as cell-based. As to conditions: for MIC: ATCC 15442; for MBC: ATCC 15442, 24 h. From the text: (§1) The strains were used in the experiments, including Gram-positive bacteria Staphylococcus aureus (ATCC 25923), Bacillus subtilis (ATCC 6633), Streptococcus mutans (ATCC 25175), Methicillin-resistant Staphylococcus aureus (ATCC 43300), Methicillin-resistant Staphylococcus aureus 1–3 (clinically isolated, number 1–3), Gram-negative bacteria Escherichia coli (ATCC 25922), E. coli (D 31), Pseudomonas aeruginosa (ATCC 15442), P. aeruginosa PAO1 (wild type), and the fungus Candida albicans (ATCC 10231). S. mutans was cultured in Brain Heart Infusion Broth (BHI, Beijing Land Bridge, China) under anaerobic condition; C. albicans was grown in Sabouraud Dextrose Broth (SDB, HuanKai Microbial, Guangzhou, China); and the other bacterial strains were grown in Tryptic Soy Broth (TSB, HuanKai Microbial, Guangzhou, China). All bacteria and fungi were cultivated to the logarithmic phase at 37 °C before experiments were performed.
(§2) The antimicrobial activities of the peptides were measured by the two-fold dilution method. Each strain was inoculated in the medium and cultivated to the logarithmic phase. A series of diluted peptides (concentrations of 3.1–100 μM, 50 μL) were prepared in a 96-well plate (Corning, New York, NY, USA), and the same volume of the bacterial suspension (the final concentration of 1 × 10^6 CFU/mL) was added. After incubation at 37 °C for 18–24 h, the absorbance at 600 nm was measured by using a microplate reader (Multiskan Spectrum, BioTek, Winuski, VT, USA). […] All tests were performed in triplicate independent experiments.
(§3) From the MIC measuring plates, 50 μL of bacteria suspension in the presence of peptides when the concentrations were equal and up to MICs was spread on the BHI agar medium, and incubated at 37 °C for 24 h. The peptide concentration with no bacterial growth was defined as MBC [33].

The subject of data set [2] is Escherichia coli (ATCC 25922). The format is cell-based. As to conditions: for MIC: ATCC 25922; for MBC: ATCC 25922, 24 h.
Text: as §1, §2, §3

For data set [3], the system named is Streptococcus mutans (ATCC 25175). The format is cell-based. As to conditions: for MIC: ATCC 25175; for MBC: ATCC 25175, 24 h.
Text: as §1, §2, §3

Data set [4] deals with Bacillus subtilis (ATCC 6633). It counts as cell-based. As to conditions: for MIC: ATCC 6633; for MBC: ATCC 6633, 24 h.
Text: as §1, §2, §3

For data set [5], the system named is Staphylococcus aureus (ATCC 25923). The format is cell-based. Particulars: for MIC: ATCC 25923; for MBC: ATCC 25923, 24 h.
Text: as §1, §2, §3

Data set [6] relates to Candida albicans (ATCC 10231). It counts as cell-based. Particulars: for MIC: ATCC 10231; for MBC: ATCC 10231, 24 h.
Text: as §1, §2, §3

The test system of data set [7] is MRSA-1, methicillin-resistant S. aureus (clinically isolated, No.1). The format is cell-based, Staphylococcus aureus. As to conditions: for MIC: -1, methicillin-resistant (clinically isolated, No.1); for MBC: -1, methicillin-resistant (clinically isolated, No.1, 24 h).
Text: as §1, §2, §3

Data set [8] relates to MRSA-3, methicillin-resistant S. aureus (clinically isolated, No.3). It counts as cell-based, Staphylococcus aureus. As to conditions: for MIC: -3, methicillin-resistant (clinically isolated, No.3); for MBC: -3, methicillin-resistant (clinically isolated, No.3, 24 h).
Text: as §1, §2, §3

Data set [9] relates to methicillin-resistant S. aureus (ATCC 43300). The format is cell-based, Staphylococcus aureus. As to conditions: for MIC: ATCC 43300; for MBC: ATCC 43300, 24 h.
Text: as §1, §2, §3

In data set [10] the test system is MRSA-2, methicillin-resistant S. aureus (clinically isolated, No.2). The format is cell-based, Staphylococcus aureus. As to conditions: for MIC: -2, methicillin-resistant (clinically isolated, No.2); for MBC: -2, methicillin-resistant (clinically isolated, No.2, 24 h).
Text: as §1, §2, §3

Data set [11] has as its system P. aeruginosa PAO1 (wild type). The format is cell-based, Pseudomonas aeruginosa. Particulars: for MIC: PAO1; for MBC: PAO1, 24 h.
Text: as §1, §2, §3

The test system of data set [12] is Human red blood cells (hRBCs). It counts as cell-based. As for the experimental part:
The hemolytic toxicity of the peptides was determined as described. Human red blood cells (hRBCs) were washed with phosphate-buffered saline (PBS, pH 7.2) and centrifuged at 1000× g for 10 min at 4 °C until the supernatant was clear. 4% hRBCs and an equal volume of the peptides with different concentrations were incubated at 37 °C for 1 h. After incubation, the supernatant was collected by centrifugation, and 150 μL was transferred to a new 96-well plate (Corning, New York, NY, USA). The absorbance at 450 nm was measured. The 0.1% Triton X-100 was used as the positive control, and PBS was used as the negative control. The minimum hemolysis concentration (MHC) was defined as the lowest concentration of peptide that causes 10% hemolysis, and HL50 was the lowest concentration that causes 50% hemolysis. CSI was defined as the ratio of HL50 to MIC [31].

The subject of data set [13] is E. coli (D31), anti-streptomycin strain. It counts as cell-based, Escherichia coli. Particulars: 37 °C; for MIC: TSB, 1 × 10^6 CFU/mL, 18–24 h, absorbance 600 nm, triplicate, first value of cell; for MBC: plated from MIC wells on agar, 24 h, no growth, second value of cell.
Text: as §1, §2, §3

The subject of another data set is S. mutans biofilms. It counts as cell-based, Streptococcus mutans. Particulars: S. mutans in BHI with 1% sucrose, 24 h anaerobic, CV staining, absorbance 590 nm. On the procedure:
CV was used to detect the effects of the peptides on the formation of biofilm and the eradication of mature biofilm. 100 μL of S. mutans in the logarithmic phase was diluted in BHI (containing 1% sucrose) to the concentration of 2 × 10^6 CFU/mL. The suspensions were added to the equal volume of the peptides (the final concentrations of 0.8–12.5 μM). After incubation at 37 °C under anaerobic conditions for 24 h, the supernatant was discarded. The plate was irrigated with PBS carefully to wash away the planktonic bacteria. After fixing with anhydrous methanol for 15 min, 0.5% CV was added to each well for staining the biofilms. The excess CV was washed away by PBS (pH 7.2), and the bound CV was dissolved with anhydrous methanol. A microplate reader (Multiskan Spectrum, BioTek, Winuski, VT, USA) was used to measure the absorbance value of 590 nm. MBIC50 was defined as the lowest peptide concentration that inhibited 50% of biofilm formation.

Data set [14] relates to S. mutans mature biofilms. Kind of data set: Mature biofilm eradication, crystal violet. The format is cell-based, Streptococcus mutans. Particulars: 24 h mature S. mutans biofilms, 24 h treatment, CV staining, absorbance 590 nm. As for the experimental part: To evaluate the ability of the peptides to eradicate the mature biofilms of S. mutans, the bacteria (the final concentration of 1 × 10^6 CFU/mL) were seeded in a flat bottom 96-well plate for 24 h to obtain the mature biofilms. The planktonic bacteria were washed away, and the peptides with the concentrations of 3.1–50 μM were added. After treatment for 24 h, CV was used for staining and quantification as described above. The biofilms untreated with the peptides served as the negative control. MBEC50 was defined as the lowest peptide concentration that removed 50% of the mature biofilm.

As for FLQRIIGARGRLF [GHaR9R], the minimal inhibitory concentration (MIC) in data set [1] is greater than 50 µM; in data set [2], greater than 50 µM; in data set [3] it was greater than 50 µM; in data set [4], greater than 50 µM; in [5], 6.2 µM; in [6], greater than 50 µM. In addition, the MIC in data set [7], in data set [8], in [9], in data set [10] and in [11] was greater than 50 µM each time. Moreover, the MBC in data set [1] was greater than 50 µM; in data set [2] it was greater than 50 µM; in [3], greater than 50 µM; in data set [4], greater than 50 µM; in [5], 12.5 µM; in data set [6], greater than 50 µM. Besides, the MBC in data set [7], in data set [8], in data set [9], in data set [10] and in [11] was greater than 50 µM throughout.
Take FLQRIIGAWGRLF [GHaR9W]: the MIC is greater than 50 µM in data set [1]; 12.5 µM in data set [2]; 6.2 µM in [3]; 3.1 µM in data set [5]; 25 µM in [6]; 6.2 µM in [7]. For the same sequence, the minimum inhibitory concentration (MIC) in data set [8] was 6.2 µM; in data set [9] it was 6.2 µM; in data set [10] it was 6.2 µM; in data set [11], 25 µM. For the same sequence, the MBC in data set [1] was greater than 50 µM; in [2], 12.5 µM; in data set [3] it was 6.2 µM; in data set [5], 6.2 µM; in [6], 25 µM; in data set [7], 12.5 µM. Besides, the MBC in data set [8] was 12.5 µM; in data set [9], 12.5 µM; in data set [10] it was 12.5 µM; in data set [11] it was 50 µM. For the same sequence, the “HL50 relative to that of GHaR” value in data set [12] is recorded as 1–5 times higher.
Turning to FLQRIIRALGRLF [GHaR7R], the MIC in data set [1] was greater than 50 µM; in data set [2], 3.1 µM; in data set [3] it was 6.2 µM; in [4] it was greater than 50 µM; in data set [5], 3.1 µM; in data set [6] it was 25 µM. The minimum inhibitory concentration (MIC) in [7] is 6.2 µM; in [8], 6.2 µM; in data set [9], 3.1 µM; in data set [10] it was 6.2 µM; in data set [11], greater than 50 µM; in data set [13] it was 12.5 µM. The MBC in data set [1] is greater than 50 µM; in data set [2], 12.5 µM; in data set [3] it was 12.5 µM; in [4], greater than 50 µM; in data set [5], 3.1 µM; in data set [6], 25 µM. The MBC in data set [7] was 25 µM; in data set [8], 25 µM; in data set [9], 6.2 µM; in data set [10], 50 µM; in data set [11], greater than 50 µM; in data set [13], 50 µM. In addition, the “MBIC50 (lowest peptide concentration that inhibited 50% of biofilm formation)” value in the data set with S. mutans biofilms came out at 6.2 µM. Moreover, the “MBEC50 (lowest peptide concentration that removed 50% of the mature biofilm)” value in data set [14] was 25 µM.
As to FLQRIIGALGRLF [GHaR], the minimum inhibitory concentration (MIC) in data set [1] came to 6.2 µM; in data set [2], 6.2 µM; in data set [3] it was 3.1 µM; in data set [5], 1.6 µM; in data set [6] it was 12.5 µM; in [7], 3.1 µM. For the same sequence, the minimum inhibitory concentration (MIC) was 3.1 µM in [8], 3.1 µM in data set [9], 6.2 µM in data set [10] and 25 µM in data set [11]. Further, the MBC in [1] was found to be 6.2 µM; in [2] it was 6.2 µM; in [3], 6.2 µM; in data set [5] it was 1.6 µM; in [6], 50 µM; in data set [7], 25 µM. Also, the MBC in data set [8] came out at 6.2 µM; in [9], 3.1 µM; in data set [10], 12.5 µM; in [11], 50 µM.
In the case of FLQRIRGALGRLF [GHaR6R], the time to complete eradication is less than 15 min. Further, in data set [1], the MIC is greater than 50 µM and the MBC was greater than 50 µM. Besides, in data set [2], the lowest concentration to inhibit growth (MIC) was 12.5 µM and the MBC is 12.5 µM. In data set [3], this sequence had an MIC of 12.5 µM and an MBC of 12.5 µM. In addition, in data set [4], the minimum inhibitory concentration (MIC) came to 25 µM and the MBC turned out to be 50 µM. In data set [5], this sequence came in with a minimal inhibitory concentration (MIC) of 3.1 µM and an MBC of 12.5 µM. In data set [6], this sequence registered an MIC of 50 µM and an MBC of 50 µM. In data set [7], this sequence displayed a minimum inhibitory concentration (MIC) of 12.5 µM and an MBC of 25 µM. Besides, in data set [8], the MIC amounted to 6.2 µM and the MBC is 25 µM. In data set [9], this sequence displayed an MIC of 6.2 µM and an MBC of 12.5 µM. In data set [10], this sequence registered an MIC of 12.5 µM and an MBC of 25 µM. Besides, in [11], the minimum inhibitory concentration (MIC) was determined as 3.1 µM and the MBC amounted to 25 µM. Also, the “HL50 relative to that of GHaR” value in data set [12] is 1–5 times higher. In data set [13], the minimal inhibitory concentration (MIC) stood at 25 µM and the MBC is 50 µM. Moreover, the “MBIC50 (lowest peptide concentration that inhibited 50% of biofilm formation)” value with S. mutans biofilms was found to be 6.2 µM. Besides, the “MBEC50 (lowest peptide concentration that removed 50% of the mature biofilm)” value in data set [14] came to 25 µM.

What is called MIC is the lowest concentration that inhibits growth of the organism. A higher MIC goes with a need for much substance.
